Data as given in patent publication US20160002204A1 (Board of Regents, The University of Texas System, priority 2014, published 2016).

Target: T1, GLS1 (purified recombinant human GAC) (Homo sapiens, UniProt O94925)
T1 sequence (O94925 55-598 isoform O94925-3 limits assumed): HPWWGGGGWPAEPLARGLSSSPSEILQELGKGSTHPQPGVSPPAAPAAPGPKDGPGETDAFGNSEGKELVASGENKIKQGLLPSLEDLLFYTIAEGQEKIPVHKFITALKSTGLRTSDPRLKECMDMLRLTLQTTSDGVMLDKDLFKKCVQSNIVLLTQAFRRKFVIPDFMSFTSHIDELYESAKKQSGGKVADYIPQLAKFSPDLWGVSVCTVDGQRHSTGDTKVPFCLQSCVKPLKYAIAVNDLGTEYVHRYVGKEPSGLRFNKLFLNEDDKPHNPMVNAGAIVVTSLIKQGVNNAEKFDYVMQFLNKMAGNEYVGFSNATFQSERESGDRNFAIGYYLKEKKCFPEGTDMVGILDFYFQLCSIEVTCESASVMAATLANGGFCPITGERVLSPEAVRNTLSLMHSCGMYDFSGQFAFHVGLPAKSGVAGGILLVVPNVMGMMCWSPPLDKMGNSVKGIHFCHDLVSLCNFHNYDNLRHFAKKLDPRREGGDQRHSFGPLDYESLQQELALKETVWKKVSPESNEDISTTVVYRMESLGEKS
Experiment: GLS1 enzymatic activity assay (dual-coupled, Amplex UltraRed/resorufin)
Type: biochemical
Protocol: GLS1 Enzymatic Activity Assay
The inhibition of purified recombinant human GAC by varying concentrations of inhibitors is assessed via a dual-coupled enzymatic assay. The glutamate produced by the glutaminase reaction is used by glutamate oxidase to produce α-ketoglutarate, ammonia, and hydrogen peroxide, with this hydrogen peroxide subsequently being used by horseradish peroxidase to produce resorufin in the presence of Amplex UltraRed. The assay buffer consisted of 50 mM Hepes (pH 7.4), 0.25 mM EDTA and 0.1 mM Triton X-100. GAC was incubated with potassium phosphate (10 minutes at room temperature) prior to incubation with inhibitor (10 minutes at room temperature). The final reaction conditions were as follows: 2 nM GAC, 50 mM potassium phosphate, 100 mU/mL glutamate oxidase (Sigma), 1 mM glutamine (Sigma), 100 mU/mL horseradish peroxidase (Sigma), 75 μM Amplex UltraRed (Life Technologies), and 1% (v/v) DMSO. The production of resorufin was monitored on a Perkin Elmer Envision plate reader (excitation 530 nm, emission 590 nm) either in a kinetics or endpoint mode (at 20 minutes). IC50 values were calculated using a four-parameter logistic curve fit.

SMILES	IC50
CC(C)CS(=O)(=O)Nc1ccn(CCCCc2ccc(NC(=O)Cc3ccccc3)nn2)c(=O)n1 [Example 26, N-(6-(4-(4-(2-methylpropylsulfonamido)-2-oxopyrimidin-1(2H)-yl)butyl)pyridazin-3-yl)-2-phenylacetamide]	500 to 5000 nM
Nc1nnc(CCCCn2ccc(NC(=O)Cc3ccccc3)cc2=O)s1 [Example 30, N-{1-[4-(5-amino-1,3,4-thiadiazol-2-yl)butyl]-2-oxo-1,2-dihydropyridin-4-yl}-2-phenylacetamide]	500 to 5000 nM
O=C(Cc1cccc(OC(F)(F)F)c1)Nc1ccn(CCCCn2cc(C(=O)NCc3ccccc3)nn2)c(=O)n1 [Example 115, N-benzyl-1-[4-(2-oxo-4-{2-[3-(trifluoromethoxy)phenyl]acetamido}-1,2-dihydropyrimidin-1-yl)butyl]-1H-1,2,3-triazole-4-carboxamide]	500 to 5000 nM
C[C@@H](NC(=O)c1ccn(CCCCn2cc(C(=O)NCc3cccc(OC(F)(F)F)c3)nn2)c(=O)c1)C(N)=O [Example 137, 1-[4-(4-{[(1R)-1-carbamoylethyl]carbamoyl}-2-oxo-1,2-dihydropyridin-1-yl)butyl]-N-{[3-(trifluoromethoxy)phenyl]methyl}-1H-1,2,3-triazole-4-carboxamide]	500 to 5000 nM
C[C@H](NC(=O)c1ccn(CCCCn2cc(C(=O)NCc3cccc(OC(F)(F)F)c3)nn2)c(=O)c1)C(N)=O [Example 138, 1-[4-(4-{[(1S)-1-carbamoylethyl]carbamoyl}-2-oxo-1,2-dihydropyridin-1-yl)butyl]-N-{[3-(trifluoromethoxy)phenyl]methyl}-1H-1,2,3-triazole-4-carboxamide]	500 to 5000 nM
Nc1ccn(CCCCn2cc(C(=O)NCc3cccc(C(F)(F)F)c3)nn2)c(=O)c1 [Example 140, 1-[4-(4-amino-2-oxo-1,2-dihydropyridin-1-yl)butyl]-N-{[3-(trifluoromethyl)phenyl]methyl}-1H-1,2,3-triazole-4-carboxamide]	500 to 5000 nM
CC(=O)Nc1ccn(CCCCn2cc(C(=O)NCc3cccc(C(F)(F)F)c3)nn2)c(=O)c1 [Example 142, 1-[4-(4-acetamido-2-oxo-1,2-dihydropyridin-1-yl)butyl]-N-{[3-(trifluoromethyl)phenyl]methyl}-1H-1,2,3-triazole-4-carboxamide]	500 to 5000 nM
CCN1CCC(CC(=O)Nc2ccn(CCCCn3cc(C(=O)NCc4cccc(OC(F)(F)F)c4)nn3)c(=O)c2)CC1 [Example 207, 1-(4-{4-[2-(1-ethylpiperidin-4-yl)acetamido]-2-oxo-1,2-dihydropyridin-1-yl}butyl)-N-{[3-(trifluoromethoxy)phenyl]methyl}-1H-1,2,3-triazole-4-carboxamide]	500 to 5000 nM
CCOC(=O)c1cn(CC(F)CCn2ccc(NC(=O)CC3CCCCC3)c(F)c2=O)nn1 (stereo not shown) [Example 225, ethyl 1-{4-[4-(2-cyclohexylacetamido)-3-fluoro-2-oxo-1,2-dihydropyridin-1-yl]-2-fluorobutyl}-1H-1,2,3-triazole-4-carboxylate]	500 to 5000 nM
Nc1ccn(CCC(F)Cn2cc(C(=O)NCc3cccc(C(F)(F)F)n3)nn2)c(=O)c1F (stereo not shown) [Example 321, 1-[4-(4-amino-3-fluoro-2-oxo-1,2-dihydropyridin-1-yl)-2-fluorobutyl]-N-{[6-(trifluoromethyl)pyridin-2-yl]methyl}-1H-1,2,3-triazole-4-carboxamide]	> 5000 nM
Nc1ccn(CCC(F)Cn2cc(C(=O)NCc3cc(C(F)(F)F)ccn3)nn2)c(=O)c1F (stereo not shown) [Example 322, 1-[4-(4-amino-3-fluoro-2-oxo-1,2-dihydropyridin-1-yl)-2-fluorobutyl]-N-{[4-(trifluoromethyl)pyridin-2-yl]methyl}-1H-1,2,3-triazole-4-carboxamide]	> 5000 nM
O=C(Cc1ccccc1)Nc1ccn(CCCn2cc(C(=O)NCc3cccc(OC(F)(F)F)c3)nn2)c(=O)c1 [Example 436, 1-{3-[2-oxo-4-(2-phenylacetamido)-1,2-dihydropyridin-1-yl]propyl}-N-{[3-(trifluoromethoxy)phenyl]methyl}-1H-1,2,3-triazole-4-carboxamide]	> 5000 nM
O=C(NCc1ccccc1)c1ccn(CCCn2cc(C(=O)NCc3cccc(OC(F)(F)F)c3)nn2)c(=O)c1 [Example 437, N-benzyl-2-oxo-1-{3-[4-({[3-(trifluoromethoxy)phenyl]methyl}carbamoyl)-1H-1,2,3-triazol-1-yl]propyl}-1,2-dihydropyridine-4-carboxamide]	> 5000 nM
O=C(Cc1ccccn1)Nc1ccn(CCCCc2nnc(C(=O)NCc3ccccn3)s2)c(=O)c1 [Example 448, 5-(4-{2-oxo-4-[2-(pyridin-2-yl)acetamido]-1,2-dihydropyridin-1-yl}butyl)-N-(pyridin-2-ylmethyl)-1,3,4-thiadiazole-2-carboxamide]	500 to 5000 nM
COCCNC(=O)c1nnc(CCCCn2ccc(NC(=O)Cc3ccccc3)cc2=O)s1 [Example 449, N-(2-methoxyethyl)-5-{4-[2-oxo-4-(2-phenylacetamido)-1,2-dihydropyridin-1-yl]butyl}-1,3,4-thiadiazole-2-carboxamide]	500 to 5000 nM
COCCNC(=O)c1nnc(CCCCn2ccc(NC(=O)Cc3ccccn3)cc2=O)s1 [Example 452, N-(2-methoxyethyl)-5-(4-{2-oxo-4-[2-(pyridin-2-yl)acetamido]-1,2-dihydropyridin-1-yl]butyl)-1,3,4-thiadiazole-2-carboxamide]	500 to 5000 nM
O=C(Cc1ccccn1)Nc1ccn(CCCCc2nnc(C(=O)NCc3ncccc3F)s2)c(=O)c1 [Example 457, N-[(3-fluoropyridin-2-yl)methyl]-5-(4-{2-oxo-4-[2-(pyridin-2-yl)acetamido]-1,2-dihydropyridin-1-yl}butyl)-1,3,4-thiadiazole-2-carboxamide]	500 to 5000 nM

Other lines, results leading:

IC50	SMILES
500 to 5000 nM	CC(C)(C)OC(=O)NCc1cn(CCCCn2ccc(NC(=O)Cc3ccccc3)cc2=O)nn1 [Example 9, tert-Butyl N-[(1-{4-[2-oxo-4-(2-phenylacetamido)-1,2-dihydropyridin-1-yl]butyl}-1H-1,2,3-triazol-4-yl)methyl]carbamate]
500 to 5000 nM	Nc1ccn(CCCCc2ccc(NC(=O)Cc3ccccc3)nn2)c(=O)n1 [Example 21, N-(6-(4-(4-amino-2-oxopyrimidin-1(2H)-yl)butyl)pyridazin-3-yl)-2-phenylacetamide]
500 to 5000 nM	COCCCNc1ccn(CCCCc2ccc(NC(=O)Cc3ccccc3)nn2)c(=O)n1 [Example 25, N-(6-(4-(4-((3-methoxypropyl)amino)-2-oxopyrimidin-1(2H)-yl)butyl)pyridazin-3-yl)-2-phenylacetamide]
100 to 500 nM	CCN1CCC(CC(=O)Nc2ccn(CCC(F)Cn3cc(C(=O)NCc4cccc(OC(F)(F)F)c4)nn3)c(=O)c2)CC1 (stereo not shown) [Example 218, 1-(4-{4-[2-(1-ethylpiperidin-4-yl)acetamido]-2-oxo-1,2-dihydropyridin-1-yl}-2-fluorobutyl)-N-{[3-(trifluoromethoxy)phenyl]methyl}-1H-1,2,3-triazole-4-carboxamide]
100 to 500 nM	O=C1CN(CC(=O)Nc2ccn(CCC(F)Cn3cc(C(=O)NCc4cccc(OC(F)(F)F)c4)nn3)c(=O)c2)CCN1 (stereo not shown) [Example 230, 1-(2-fluoro-4-{2-oxo-4-[2-(3-oxopiperazin-1-yl)acetamido]-1,2-dihydropyridin-1-yl}butyl)-N-{[3-(trifluoromethoxy)phenyl]methyl}-1H-1,2,3-triazole-4-carboxamide]
100 to 500 nM	CN1CCN(CC(=O)Nc2ccn(CCC(F)Cn3cc(C(=O)NCc4cccc(OC(F)(F)F)c4)nn3)c(=O)c2)CC1 (stereo not shown) [Example 254, 1-(2-fluoro-4-{4-[2-(4-methylpiperazin-1-yl)acetamido]-2-oxo-1,2-dihydropyridin-1-yl}butyl)-N-{[3-(trifluoromethoxy)phenyl]methyl}-1H-1,2,3-triazole-4-carboxamide]
100 to 500 nM	CC(C)(C)OC(=O)Nc1ccn(CCC(F)Cn2cc(C(=O)NCc3cccc(C(F)(F)F)n3)nn2)c(=O)c1F (stereo not shown) [Example 319, tert-butyl N-(3-fluoro-1-{3-fluoro-4-[4-({[6-(trifluoromethyl)pyridin-2-yl]methyl}carbamoyl)-1H-1,2,3-triazol-1-yl]butyl}-2-oxo-1,2-dihydropyridin-4-yl)carbamate]
100 to 500 nM	Cc1ccc(CNC(=O)c2nnc(CCCCn3ccc(NC(=O)Cc4ccccn4)cc3=O)s2)cn1 [Example 444, N-[(6-methylpyridin-3-yl)methyl]-5-(4-{2-oxo-4-[2-(pyridin-2-yl)acetamido]-1,2-dihydropyridin-1-yl}butyl)-1,3,4-thiadiazole-2-carboxamide]
